{"source": "patent US12507891B2", "about": "(priority 2020, dated 2025)", "origin": "cited, not measured here", "conditions": "incrementally increased propofol hypnosis"}
{"compound": "CC(C)c1cccc(C(C)C)c1O", "note": "[propofol]", "values": [{"measurement": "PUAL under propofol hypnosis", "result": "PUAL values remain within normal ranges until a subject becomes completely unresponsive"}]}
